For the assay, the target named is T1, hROMK (hKir1.1) (Homo sapiens, UniProt P48048).
T1 construct: expressed in transfected cells
T1 sequence (P48048 1-391): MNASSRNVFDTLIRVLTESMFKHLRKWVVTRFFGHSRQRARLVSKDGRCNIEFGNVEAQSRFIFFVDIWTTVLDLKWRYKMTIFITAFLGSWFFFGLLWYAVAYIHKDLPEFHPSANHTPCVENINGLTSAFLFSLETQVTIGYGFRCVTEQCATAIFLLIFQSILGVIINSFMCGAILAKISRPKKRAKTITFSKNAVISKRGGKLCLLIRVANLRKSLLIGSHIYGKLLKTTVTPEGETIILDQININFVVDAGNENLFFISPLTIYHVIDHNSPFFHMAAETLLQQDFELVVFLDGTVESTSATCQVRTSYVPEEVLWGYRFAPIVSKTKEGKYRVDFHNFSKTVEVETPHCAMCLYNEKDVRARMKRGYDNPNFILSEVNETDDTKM
Kind of assay: Thallium Flux Assay (ROMK channel functional thallium flux assay). The following applies: HEK293 cells stably expressing hROMK (hKir1.1); FluxOR thallium flux, FLIPR-Tetra, 30 min compound incubation; read-out: ROMK TI IC50. It counts as cell-based. The protocol:
The following Thallium Flux Assay was performed on each of the final product compounds in the Examples.
HEK293 cells stably expressing hROMK (hKir1.1) were grown at 37° C. in a 10% CO2 humidified incubator in complete growth media: Dulbecco's Modified Eagle Medium supplemented with non-essential amino acids, Penicillin/Streptomycin/Glutamine, G418 and FBS. At >80% confluency, the media was aspirated from the flask and rinsed with 10 mL calcium/magnesium-free PBS. […] To dislodge the cell, the side of the flask was gently banged with one's hand. The cells completely titrated and then the cells were transferred to 25 mL complete media, centrifuged at 1,500 rpm for 6 min followed by resuspension in complete growth media and determine cell concentration. […] Under ideal growth conditions and appropriate tissue culture practices, this cell line is stable for 40-45 passages.
• FluxOR™ Reagent (Component A) • FluxOR™ Assay Buffer (Component B)—10× Concentrate • PowerLoad™ Concentrate (Component C)—100× Concentrate • Probenecid (Component D)—Lyophilized sample is kept at −20° C. Water soluble, 100× after solubilization in 1 mL water. […] Store at 4° C. • Thallium sulfate (Tl2SO4) Concentrate (Component G)—50 mM in water. Store at 4° C. • DMSO (dimethyl sulfoxide, Component H)—1 mL (100%)
Can be stored at room temperature • Stimulant Buffer (prepared at 5× final concentration in 1×FluxOR™ Chloride-Free Buffer): 7.5 mM thallium sulfate and 0.75 mM potassium sulfate (to give a final assay concentration of 3 mM Thallium/0.3 mM potassium). Store at 4° C. when not in use. If kept sterile, this solution is good for months.
The ROMK channel functional thallium flux assay was performed in 384 wells, using the FLIPR-Tetra instrument. HEK-hKir1.1 cells were seeded in Poly-D-Lysine microplates and kept in a 37° C.-10% CO2 incubator overnight. On the day of the experiment, the growth media was replaced with the FluxOR™ reagent loading buffer and incubated, protected from light, at ambient temperature (23-25° C.) for 90 min. The loading buffer was replaced with assay buffer±test compound followed by 30 min incubation at ambient temperature, where the thallium/potassium stimulant was added to the microplate.
1. Seed HEK-hKir1.1 cells (50 μl at 20,000 cells/well) in 384-well PDL coated Microplates 2. Allow cells to adhere overnight in humidified 37° C./10% CO2 incubator 3. Completely remove cell growth media from microplate and replace with 25 μl loading buffer 4. Incubate Microplate at room temperature, protected form light, for 90 min 5. Remove loading buffer and replace with 25 μl 1× Assay Buffer±test compound. 6. Incubate microplate at room temperature, protected from light, for 30 min 7. […] Excitation=400 nm, Emission=460 & 580 nm. Collect data for ˜10 min.
The fluorescence intensity of wells containing 3 μM of a standard control ROMK inhibitor of the present invention was used to define the ROMK-sensitive component of thallium flux. Fluorescence in the presence of test compounds was normalized to control values to provide % fluorescence change.
Take `Cc1c([C@@H](O)CN2CCC3(CC2)CCN(c2ccnc(N(C)C)n2)C3=O)ccc2c1COC2=O` [Example 43, (R)-2-(2-(dimethylamino)pyrimidin-4-yl)-8-(2-hydroxy-2-(4-methyl-1-oxo-1,3-dihydroisobenzofuran-5-yl)ethyl)-2,8-diazaspiro[4.5]decan-1-one]: the IC50 is 521 nM. `CCOc1nccc(N2CCC3(CCN(C[C@H](O)c4ccc5c(c4C)COC5=O)CC3)C2=O)n1` [Example 44, (R)-2-(2-ethoxypyrimidin-4-yl)-8-(2-hydroxy-2-(4-methyl-1-oxo-1,3-dihydroisobenzofuran-5-yl)ethyl)-2,8-diazaspiro[4.5]decan-1-one]: the IC50 was 66.6 nM. Take `CCc1nccc(N2CCC3(CCN(C[C@H](O)c4ccc5c(c4C)COC5=O)CC3)C2=O)n1` [Example 45, (R)-2-(2-ethylpyrimidin-4-yl)-8-(2-hydroxy-2-(4-methyl-1-oxo-1,3-dihydroisobenzofuran-5-yl)ethyl)-2,8-diazaspiro[4.5]decan-1-one]: the IC50 amounted to 354 nM.

Take `Cc1c([C@@H](O)CN2CCC3(CC2)CCN(c2ccnc(N)n2)C3=O)ccc2c1COC2=O` [Example 46, (R)-2-(2-aminopyrimidin-4-yl)-8-(2-hydroxy-2-(4-methyl-1-oxo-1,3-dihydroisobenzofuran-5-yl)ethyl)-2,8-diazaspiro[4.5]decan-1-one]: the IC50 was 485 nM.

Regarding `CNc1nccc(N2CCC3(CCN(C[C@H](O)c4ccc5c(c4C)COC5=O)CC3)C2=O)n1` [Example 47, (R)-8-(2-hydroxy-2-(4-methyl-1-oxo-1,3-dihydroisobenzofuran-5-yl)ethyl)-2-(2-(methylamino)pyrimidin-4-yl)-2,8-diazaspiro[4.5]decan-1-one], the IC50 was 58.5 nM. In the case of `Cc1c([C@@H](O)CN2CCC3(CC2)CCN(c2cnn(C)c(=O)c2)C3=O)ccc2c1COC2=O` [Example 49, (R)-8-(2-hydroxy-2-(4-methyl-1-oxo-1,3-dihydroisobenzofuran-5-yl)ethyl)-2-(1-methyl-6-oxo-1,6-dihydropyridazin-4-yl)-2,8-diazaspiro[4.5]decan-1-one] it was 176 nM; in that of `COc1cc(N2CCC3(CCN(C[C@H](O)c4ccc5c(c4C)COC5=O)CC3)C2=O)cnn1` [Example 50, (R)-8-(2-hydroxy-2-(4-methyl-1-oxo-1,3-dihydroisobenzofuran-5-yl)ethyl)-2-(6-methoxypyridazin-4-yl)-2,8-diazaspiro[4.5]decan-1-one], 480 nM. The value for `CCn1nc(N2CCC3(CCN(C[C@H](O)c4ccc5c(c4C)COC5=O)CC3)C2=O)ccc1=O` [Example 51, (R)-2-(1-ethyl-6-oxo-1,6-dihydropyridazin-3-yl)-8-(2-hydroxy-2-(4-methyl-1-oxo-1,3-dihydroisobenzofuran-5-yl)ethyl)-2,8-diazaspiro[4.5]decan-1-one] was 77 nM; that for `Cc1c([C@@H](O)CN2CCC3(CC2)CCN(c2cc(C)c(=O)n(C)n2)C3=O)ccc2c1COC2=O` [Example 52, (R)-2-(1,5-dimethyl-6-oxo-1,6-dihydropyridazin-3-yl)-8-(2-hydroxy-2-(4-methyl-1-oxo-1,3-dihydroisobenzofuran-5-yl)ethyl)-2,8-diazaspiro[4.5]decan-1-one] was 427 nM. In the case of `Cc1c([C@@H](O)CN2CCC3(CC2)CCN(c2ccc(=O)n(C4CC4)n2)C3=O)ccc2c1COC2=O` [Example 53, (R)-2-(1-cyclopropyl-6-oxo-1,6-dihydropyridazin-3-yl)-8-(2-hydroxy-2-(4-methyl-1-oxo-1,3-dihydroisobenzofuran-5-yl)ethyl)-2,8-diazaspiro[4.5]decan-1-one] it was 40.6 nM; in that of `Cc1c([C@@H](O)CN2CCC3(CC2)CCN(c2ccc(=O)n(C(F)F)c2)C3=O)ccc2c1COC2=O` [Example 54, (R)-2-(1-(difluoromethyl)-6-oxo-1,6-dihydropyridin-3-yl)-8-(2-hydroxy-2-(4-methyl-1-oxo-1,3-dihydroisobenzofuran-5-yl)ethyl)-2,8-diazaspiro[4.5]decan-1-one], 293 nM; in that of `Cc1c([C@@H](O)CN2CCC3(CC2)CCN(c2ccc(=O)n(C(F)F)n2)C3=O)ccc2c1COC2=O` [Example 55, (R)-2-(1-(difluoromethyl)-6-oxo-1,6-dihydropyridazin-3-yl)-8-(2-hydroxy-2-(4-methyl-1-oxo-1,3-dihydroisobenzofuran-5-yl)ethyl)-2,8-diazaspiro[4.5]decan-1-one], 133 nM.

As for `Cc1c([C@@H](O)CN2CCC3(CC2)CCN(c2ccc(=O)n(C)n2)C3=O)ccc2c1COC2=O` [Example 56, (R)-8-(2-hydroxy-2-(4-methyl-1-oxo-1,3-dihydroisobenzofuran-5-yl)ethyl)-2-(1-methyl-6-oxo-1,6-dihydropyridazin-3-yl)-2,8-diazaspiro[4.5]decan-1-one], the IC50 came out at 35.1 nM. As to `Cc1c([C@@H](O)CN2CCC3(CC2)CC(=O)N(c2ccns2)C3)ccc2c1COC2=O` [Example 61, (R)-8-(2-hydroxy-2-(4-methyl-1-oxo-1,3-dihydroisobenzofuran-5-yl)ethyl)-2-(isothiazol-5-yl)-2,8-diazaspiro[4.5]decan-3-one], the IC50 was found to be 547 nM. The value for `CCOC(=O)c1cc(N2CCC3(CCN(C[C@H](O)c4ccc5c(c4C)COC5=O)CC3)C2=O)on1` [Example 64, (R)-ethyl 5-(8-(2-hydroxy-2-(4-methyl-1-oxo-1,3-dihydroisobenzofuran-5-yl)ethyl)-1-oxo-2,8-diazaspiro[4.5]decan-2-yl)isoxazole-3-carboxylate] was 241 nM; that for `Cc1cc(N2CCC3(CCN(C[C@H](O)c4ccc5c(c4C)COC5=O)CC3)C2=O)sn1` [Example 66, (R)-8-(2-hydroxy-2-(4-methyl-1-oxo-1,3-dihydroisobenzofuran-5-yl)ethyl)-2-(3-methylisothiazol-5-yl)-2,8-diazaspiro[4.5]decan-1-one] was 17.5 nM. In the case of `Cc1c([C@@H](O)CN2CCC3(CC2)CCN(c2ccncn2)C3=O)ccc2c1COC2=O` [Example 67, (R)-8-(2-hydroxy-2-(4-methyl-1-oxo-1,3-dihydroisobenzofuran-5-yl)ethyl)-2-(pyrimidin-4-yl)-2,8-diazaspiro[4.5]decan-1-one] it was 434 nM; in that of `Cc1cc2c(cc1[C@@H](O)CN1CCC3(CC1)CCN(c1ccns1)C3=O)COC2=O` [Example 68, (R)-8-(2-hydroxy-2-(6-methyl-1-oxo-1,3-dihydroisobenzofuran-5-yl)ethyl)-2-(isothiazol-5-yl)-2,8-diazaspiro[4.5]decan-1-one], 221 nM. The value for `Cc1cc2c(cc1[C@H](O)CN1CCC3(CC1)CCN(c1ccns1)C3=O)COC2=O` [Example 69, (S)-8-(2-hydroxy-2-(6-methyl-1-oxo-1,3-dihydroisobenzofuran-5-yl)ethyl)-2-(isothiazol-5-yl)-2,8-diazaspiro[4.5]decan-1-one] was 673 nM; that for `COc1cc([C@@H](O)CN2CCC3(CC2)CCN(c2ccns2)C3=O)ncc1C#N` [Example 70, (S)-6-(1-hydroxy-2-(2-(isothiazol-5-yl)-1-oxo-2,8-diazaspiro[4.5]decan-8-yl)ethyl)-4-methoxynicotinonitrile] was 695 nM. `Cc1nsc(N2CCC3(CCN(C[C@H](O)c4ccc5c(c4C)COC5=O)CC3)C2=O)n1` [Example 71, (R)-8-(2-hydroxy-2-(4-methyl-1-oxo-1,3-dihydroisobenzofuran-5-yl)ethyl)-2-(3-methyl-1,2,4-thiadiazol-5-yl)-2,8-diazaspiro[4.5]decan-1-one]: the IC50 stood at 37.1 nM.

As usually defined, the IC50 is the midpoint of a concentration-inhibition curve.
